Results reported in US11051513B2, “Pyridone compounds and agricultural and horticultural fungicides containing the same as active ingredients” (MITSUI CHEMICALS AGRO, INC., priority 2017, dated 2021).

Assays:
Magnaporthe grisea = test: whole plant or invertebrate; assay type: in vivo; details: Pyricularia oryzae, in Oryza sativa, read-out: control value
Botrytis cinerea = test: Test Example B: Gray mold on tomato; details: in Solanum lycopersicum, read-out: control value
Description: (§1) Disease development in Test Examples described below was evaluated in increments of 0.05 by setting 0 as no incidence of disease and 3 as disease development in a plant of untreated group. Further, control values were calculated using the following equation based on disease development.
(§2) <Control Value> Control value=100{1−(n/3)}
(§3) n=Disease development of each treated group
Seeds of a test plant (tomato variety: Oogata Fukuju) were planted and cultivated until three to five first leaves (true leaves) appeared. In the test, the inventive compounds were dissolved into a dimethyl sulfoxide-methanol mixture solution (volume ratio: 9/1), and the resultant solutions were diluted with well water to a concentration of 250 ppm. The thus-obtained dilutions were sprayed to the test plant (2.5 ml/pot). After the dilutions dried, a conidial suspension (4-8×10^5 conidia/ml) of Botrytis cinerea was inoculated to the plant by spraying. After the inoculation, the plant was kept in a mist chamber at room temperature of 20 to 23° C. for about 48 hours to promote the onset of disease. The disease development was investigated 2 to 3 days after the inoculation, and the effectiveness of the dilutions was evaluated.

[1] = system: Blumeria graminis f. sp. hordei; test: Test Example D: Powdery mildew on barley; details: in Hordeum vulgare, read-out: control value
Description: as §1, §2, §3
Seeds of a test plant (barley variety: Akashinriki) were planted and cultivated until the first leaves appeared. In the test, the inventive compounds were dissolved into a dimethyl sulfoxide-methanol mixture solution (volume ratio: 9/1), and the resultant solutions were diluted with well water to a concentration of 250 ppm. The thus-obtained dilutions were sprayed to the test plant (2.5 ml/pot). After the dilutions dried, conidia of Blumeria graminis f. sp. hordei were inoculated to the plant by shaking off. The disease development was investigated 6 to 10 days after the inoculation, and the effectiveness of the dilutions was evaluated.

[2] = system: Colletotrichum orbiculare; test: Test Example H: Anthracnose on cucumber; details: in Cucumis sativus, read-out: control value
Description: as §1, §2, §3
Seeds of a test plant (cucumber variety: Sagami Hanjiro) were planted and cultivated until the first leaf appeared. In the test, the inventive compounds were dissolved into a dimethyl sulfoxide-methanol mixture solution (volume ratio: 9/1), and the resultant solutions were diluted with well water to a concentration of 250 ppm. The thus-obtained dilutions were sprayed to the test plant (2.5 ml/pot). After the dilutions dried, a conidial suspension (2-4×10^5 conidia/ml) of Colletotrichum orbiculare was inoculated to the plant by spraying. After the inoculation, the plant was kept in a mist chamber at room temperature of 20 to 23° C. for about 24 hours to promote the onset of disease. The disease development was investigated 6 to 10 days after the inoculation, and the effectiveness of the dilutions was evaluated.

Puccinia recondita = test: Test Example E: Brown rust on wheat; assay type: in vivo; details: 250 ppm sprayed (2.5 ml/pot) on wheat (Norin 61), disease development 7 to 10 days after inoculation
Alternaia brassicicola = test: Test Example C: Alternaria sooty spot on cabbage; details: Brassica oleracea, read-out: control value
Description: as §1, §2, §3
Seeds of a test plant (cabbage variety: Shikidori) were planted and cultivated until the cotyledons extended. In the test, the inventive compounds were dissolved into a dimethyl sulfoxide-methanol mixture solution (volume ratio: 9/1), and the resultant solutions were diluted with well water to a concentration of 250 ppm. The thus-obtained dilutions were sprayed to the test plant (2.5 ml/pot). After the dilutions dried, a conidial suspension (4-8×10^5 conidia/ml) of Alternaia brassicicola was inoculated to the plant by spraying. After the inoculation, the plant was kept in a mist chamber at room temperature of 20 to 23° C. for about 48 hours to promote the onset of disease. The disease development was investigated 2 to 3 days after the inoculation, and the effectiveness of the dilutions was evaluated.

Measured: pest or weed control at 250 ppm

CCN1C(=O)CCC(c2cc(F)cc(F)c2Cl)=C1c1ccc(F)cc1 [compound 11, 5-(2-chloro-3,5-difluorophenyl)-1-ethyl-6-(4-fluorophenyl)-3,4-dihydropyridin-2(1H)-one]
> 50%: all assays above

CCn1c(-c2ccc(F)cc2)c(-c2cc(F)cc(F)c2Cl)ccc1=O [compound 12, 5-(2-chloro-3,5-difluorophenyl)-1-ethyl-6-(4-fluorophenyl)pyridin-2(1H)-one]
> 50%: all assays above

CCn1c(-c2ccc(F)cc2)c(-c2cc(F)cc(F)c2Cl)cc(Cl)c1=O [compound 13, 3-chloro-5-(2-chloro-3,5-difluorophenyl)-1-ethyl-6-(4-fluorophenyl)pyridin-2(1H)-one]
> 50%: all assays above

CCn1c(-c2ccc(F)cc2)c(-c2cc(F)cc(F)c2Cl)cc(Br)c1=O [compound 14, 3-bromo-5-(2-chloro-3,5-difluorophenyl)-1-ethyl-6-(4-fluorophenyl)pyridin-2(1H)-one]
> 50%: all assays above

CCn1c(-c2ccc(F)cc2)c(-c2cc(F)cc(F)c2Cl)cc(C)c1=O [compound 27, 5-(2-Chloro-3,5-difluorophenyl)-1-ethyl-6-(4-fluorophenyl)-3-methylpyridin-2(1H)-one]
> 50%: all assays above

O=C1CCC(c2cc(F)cc(F)c2Cl)=C(c2ccc(F)cc2)N1CC(F)F [compound 29, 5-(2-chloro-3,5-difluorophenyl)-1-(2,2-difluoroethyl)-6-(4-fluorophenyl)-3,4-dihydropy ridin-2(1H)-one]
> 50%: Magnaporthe grisea | [1] | [2] | Puccinia recondita

O=c1ccc(-c2cc(F)cc(F)c2Cl)c(-c2ccc(F)cc2)n1CC(F)F [compound 30, 5-(2-chloro-3,5-difluorophenyl)-1-(2,2-difluoroethyl)-6-(4-fluorophenyl)pyridin-2(1H)-one]
> 50%: all assays above

O=c1c(Cl)cc(-c2cc(F)cc(F)c2Cl)c(-c2ccc(F)cc2)n1CC(F)F [compound 31, 3-chloro-5-(2-chloro-3,5-difluorophenyl)-1-(2,2-difluoroethyl)-6-(4-fluorophenyl)pyridin-2(1H)-one]
> 50%: all assays above

CCn1c(-c2ccc(F)cc2)c(-c2cc(OC)ccc2Cl)ccc1=O [compound 33, 5-(2-chloro-5-methoxyphenyl)-1-ethyl-6-(4-fluorophenyl)pyridin-2(1H)-one]
> 50%: all assays above

CCn1c(-c2ccc(F)cc2)c(-c2cc(OC)ccc2Cl)cc(Cl)c1=O [compound 44, 3-Chloro-5-(2-chloro-5-methoxyphenyl)-1-ethyl-6-(4-fluorophenyl)pyridin-2(1H)-one]
> 50%: all assays above

CCn1c(-c2ccc(F)cc2)c(-c2cc(OCOC)ccc2Cl)cc(Cl)c1=O [compound 248, 3-chloro-5-(2-chloro-5-(methoxymethoxy)phenyl)-1-ethyl-6-(4-fluorophenyl)pyridin-2(1H)-one]
> 50%: all assays above

CCn1c(-c2ccc(F)cc2)c(-c2cccnc2Cl)ccc1=O [compound 288, 2′-chloro-1-ethyl-2-(4-fluorophenyl)-[3,3′-bipyridin]-6(1H)-one]
> 50%: all assays above

CCn1c(-c2ccc(F)cc2)c(-c2cccnc2Cl)cc(Cl)c1=O [compound 291, 2′,5-dichloro-1-ethyl-2-(4-fluorophenyl)-[3,3′-bipyridin]-6(1H)-one]
> 50%: all assays above

CCn1c(-c2ccc(F)cc2)c(-c2cc(O)ccc2Cl)cc(Cl)c1=O [compound 340, 3-chloro-5-(2-chloro-5-hydroxyphenyl)-1-ethyl-6-(4-fluorophenyl)pyridin-2(1H)-one]
> 50%: all assays above
